Measurements from patent publication US8481584B2, “1H-thieno[2,3-c]pyrazole derivatives useful as kinase inhibitors” (Nerviano Medical Sciences S.R.L., priority 2004, dated 2013).

Target: T1, Aurora-2 (Homo sapiens, UniProt O14965)
T1 sequence (O14965 1-403): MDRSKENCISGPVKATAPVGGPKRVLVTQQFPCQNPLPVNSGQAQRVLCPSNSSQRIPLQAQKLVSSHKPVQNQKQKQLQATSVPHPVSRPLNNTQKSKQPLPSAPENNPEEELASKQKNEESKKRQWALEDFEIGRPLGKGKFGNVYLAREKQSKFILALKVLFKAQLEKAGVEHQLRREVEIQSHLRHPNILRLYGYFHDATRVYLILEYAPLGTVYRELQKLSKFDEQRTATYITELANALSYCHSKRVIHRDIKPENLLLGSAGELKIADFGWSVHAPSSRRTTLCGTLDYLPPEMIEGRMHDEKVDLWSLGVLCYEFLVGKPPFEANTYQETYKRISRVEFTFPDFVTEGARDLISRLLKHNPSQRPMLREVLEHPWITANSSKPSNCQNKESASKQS
Assay: Inhibition assay of Aurora-2 activity (SPA technology)
Assay type: biochemical
Conditions: screened according to the methods of the pharmacology section; read-out: IC50 values for Aurora-2 inhibition
Description: The inhibiting activity and the potency of selected compounds is determined through a method of assay based on the use of the SPA technology (Amersham Pharmacia Biotech).
The assay consists of the transfer of radioactivity labelled phosphate moiety by the kinase to a biotinylated substrate. The resulting 33P-labelled biotinylated product is allowed to bind to streptavidin-coated SPA beads (biotin capacity 130 pmol/mg), and light emitted was measured in a scintillation counter.
Inhibition Assay of Aurora-2 Activity
After 60 minutes at room temperature incubation, reaction was stopped and biotinylated peptide captured by adding 100 μl of bead suspension.
Stratification: 100 μl of CsCl2 5 M were added to each well and let stand 4 hour before radioactivity was counted in the Top-Count instrument.
Experimental data were analyzed by the computer program GraphPad Prizm using the four parameter logistic equation: y=bottom+(top−bottom)/(1+10^((logIC50−x)*slope)) where x is the logarithm of the inhibitor concentration, y is the response; y starts at bottom and goes to top with a sigmoid shape.

Row | SMILES | IC50
1 | CN1CCN(c2ccc(C(=O)Nc3n[nH]c4sc(C(=O)N[C@H](CN5CCCC5)c5ccccc5)cc34)cc2)CC1 [Compound 32, 3-{[4-(4-methylpiperazin-1-yl)benzoyl]amino}-N-[(1S)-1-phenyl-2-pyrrolidin-1-ylethyl]-1H-thieno[2,3-c]pyrazole-5-carboxamide] | < 20 nM
2 | CCC(CC)(NC(=O)c1cc2c(NC(=O)c3ccc(N4CCN(C)CC4)cc3)n[nH]c2s1)c1ccccc1 [Compound 33, N-(1-ethyl-1-phenylpropyl)-3-{[4-(4-methylpiperazin-1-yl)benzoyl]amino}-1H-thieno[2,3-c]pyrazole-5-carboxamide] | < 20 nM
3 | CC(C)(NC(=O)c1cc2c(NC(=O)c3ccc(N4CCOCC4)cc3)n[nH]c2s1)c1cccc(F)c1 [Compound 149, 3-(4-Morpholin-4-yl-benzoylamino)-1H-thieno[2,3-c]pyrazole-5-carboxylic acid [1-(3-fluoro-phenyl)-1-methyl-ethyl]-amide] | < 20 nM
4 | O=C(Nc1n[nH]c2sc(C(=O)NC3(c4ccccc4)CC3)cc12)c1ccco1 [Compound 23, 3-(2-furoylamino)-N-(1-phenylcyclopropyl)-1H-thieno[2,3-c]pyrazole-5-carboxamide] | < 20 nM
5 | CC(C)(NC(=O)c1cc2c(NC(=O)c3ccc(CN4CCOCC4)cc3)n[nH]c2s1)c1ccccc1 [Compound 38, 3-(4-Morpholin-4-ylmethyl-benzoylamino)-1H-thieno[2,3-c]pyrazole-5-carboxylic acid (1-methyl-1-phenyl-ethyl)-amide] | < 20 nM
6 | CC[C@@H](NC(=O)c1cc2c(NC(=O)c3ccc(F)cc3)n[nH]c2s1)c1ccccc1 [Compound 9, 3-[(4-fluorobenzoyl)amino]-N-[(1R)-1-phenylpropyl]-1H-thieno[2,3-c]pyrazole-5-carboxamide] | < 20 nM
7 | O=C(Nc1n[nH]c2sc(C(=O)NC3(c4ccccc4)CC3)cc12)c1cccs1 [Compound 18, N-(1-phenylcyclopropyl)-3-[(thien-2-ylcarbonyl)amino]-1H-thieno[2,3-c]pyrazole-5-carboxamide] | < 20 nM
8 | CC[C@@H](NC(=O)c1cc2c(NC(=O)c3ccc(N4CCN(C)CC4)cc3)n[nH]c2s1)c1ccccc1 [Compound 30, 3-{[4-(4-methylpiperazin-1-yl)benzoyl]amino}-N-[(1R)-1-phenylpropyl]-1H-thieno[2,3-c]pyrazole-5-carboxamide] | < 20 nM
9 | CN1CCN(Cc2ccc(C(=O)Nc3n[nH]c4sc(C(=O)NC(C)(C)c5ccccc5)cc34)cc2)CC1 [Compound 27, N-(1-methyl-1-phenylethyl)-3-({4-[(4-methylpiperazin-1-yl)methyl]benzoyl}amino)-1H-thieno[2,3-c]pyrazole-5-carboxamide] | < 20 nM
10 | CN1CCN(c2ccc(C(=O)Nc3n[nH]c4sc(C(=O)NC(C)(C)c5ccccc5F)cc34)cc2)CC1 [Compound 141, 3-[4-(4-Methyl-piperazin-1-yl)-benzoylamino]-1H-thieno[2,3-c]pyrazole-5-carboxylic acid[1-(2-fluoro-phenyl)-1-methyl-ethyl]amide] | < 20 nM
11 | C[C@](CN1CCOCC1)(NC(=O)c1cc2c(NC(=O)c3ccc(N4CCOCC4)cc3)n[nH]c2s1)c1ccccc1 [Compound 137, 3-(4-Morpholin-4-yl-benzoylamino)-1H-thieno[2,3-c]pyrazole-5-carboxylic acid ((S)-1-methyl-2-morpholin-4-yl-1-phenyl-ethyl)-amide] | < 20 nM
12 | CC(C)(NC(=O)c1cc2c(NC(=O)c3ccc(N4CCOCC4)cc3)n[nH]c2s1)c1cccc(S(C)(=O)=O)c1 [Compound 147, 3-(4-Morpholin-4-yl-benzoylamino)-1H-thieno[2,3-c]pyrazole-5-carboxylic acid [1-(3-methanesulfonyl-phenyl)-1-methyl-ethyl]amide] | < 20 nM
13 | CC(C)(NC(=O)c1cc2c(NC(=O)c3ccc(CN4CCCC4)cc3)n[nH]c2s1)c1cccc(F)c1 [Compound 50, 3-(4-Pyrrolidin-1-ylmethyl-benzoylamino)-1H-thieno[2,3-c]pyrazole-5-carboxylic acid [1-(3-fluoro-phenyl)-1-methyl-ethyl]-amide] | < 20 nM

Results, then the molecule that gave them:

Row | IC50 | SMILES
14 | < 20 nM | CC(C)(NC(=O)c1cc2c(NC(=O)c3ccc(N4CCS(=O)(=O)CC4)cc3)n[nH]c2s1)c1ccccc1 [Compound 144, 3-[4-(1,1-Dioxo-thiomorpholin-4-yl)-benzoylamino]-1H-thieno[2,3-c]pyrazole-5-carboxylic acid (1-methyl-1-phenyl-ethyl)-amide]
15 | < 20 nM | CC(C)(NC(=O)c1cc2c(NC(=O)c3ccc(CN4CCC(F)CC4)cc3)n[nH]c2s1)c1ccccc1 [Compound 46]
16 | < 20 nM | CC(C)(NC(=O)c1cc2c(NC(=O)c3ccc(CN4CCS(=O)(=O)CC4)cc3)n[nH]c2s1)c1ccccc1 [Compound 41, 3-[4-(1,1-Dioxo-1-thiomorpholin-4-ylmethyl)-benzoylamino]-1H-thieno[2,3-c]pyrazole-5-carboxylic acid(1-methyl-1-phenyl-ethyl)-amide]
17 | < 20 nM | CC(C)(NC(=O)c1cc2c(NC(=O)c3ccc(S(C)(=O)=O)cc3)n[nH]c2s1)c1ccccc1 [Compound 143, 3-(4-Methanesulfonyl-benzoylamino)-1H-thieno[2,3-c]pyrazole-5-carboxylic acid(1-methyl-1-phenyl-ethyl)-amide]
18 | < 20 nM | CC(C)(NC(=O)c1cc2c(NC(=O)c3ccc(CNC4CCC4)cc3)n[nH]c2s1)c1ccccc1 [Compound 63, 3-(4-Cyclobutylaminomethyl-benzoylamino)-1H-thieno[2,3-c]pyrazole-5-carboxylic acid (1-methyl-1-phenyl-ethyl)-amide]
19 | < 20 nM | CN1CCC(Oc2ccc(C(=O)Nc3n[nH]c4sc(C(=O)NC(C)(C)c5ccccc5)cc34)cc2)CC1 [Compound 25, N-(1-methyl-1-phenylethyl)-3-({4-[(1-methylpiperidin-4-yl)oxy]benzoyl}amino)-1H-thieno[2,3-c]pyrazole-5-carboxamide]
20 | < 20 nM | CC(C)(NC(=O)c1cc2c(NC(=O)c3ccc(F)cc3)n[nH]c2s1)c1ccccc1 [Compound 8, 3-[(4-fluorobenzoyl)amino]-N-(1-methyl-1-phenylethyl)-1H-thieno[2,3-c]pyrazole-5-carboxamide]
21 | < 20 nM | O=C(Nc1n[nH]c2sc(C(=O)NC3(c4ccccc4)CC3)cc12)c1ccc(F)cc1 [Compound 7, 3-[(4-fluorobenzoyl)amino]-N-(1-phenylcyclopropyl)-1H-thieno[2,3-c]pyrazole-5-carboxamide]
22 | < 20 nM | O=C(Nc1n[nH]c2sc(C(=O)N[C@H](CN3CCOCC3)c3ccccc3)cc12)c1cccs1 [Compound 15, N-[(1S)-2-morpholin-4-yl-1-phenylethyl]-3-[(thien-2-ylcarbonyl)amino]-1H-thieno[2,3-c]pyrazole-5-carboxamide]
23 | < 20 nM | CC(C)(NC(=O)c1cc2c(NC(=O)c3ccc(CNC4CCCC4)cc3)n[nH]c2s1)c1ccccc1 [Compound 65, 3-(4-Cyclopentylaminomethyl-benzoylamino)-1H-thieno[2,3-c]pyrazole-5-carboxylic acid (1-methyl-1-phenyl-ethyl)-amide]
24 | < 20 nM | CC(C)NCc1ccc(C(=O)Nc2n[nH]c3sc(C(=O)NC(C)(C)c4ccccc4)cc23)cc1 [Compound 40, 3-[4-(Isopropylamino-methyl)-benzoylamino]-1H-thieno[2,3-c]pyrazole-5-carboxylic acid (1-methyl-1-phenyl-ethyl)-amide]
25 | < 20 nM | CC(C)(NC(=O)c1cc2c(NC(=O)c3ccc(CNC4CC4)cc3)n[nH]c2s1)c1ccccc1 [Compound 62, 3-(4-Cyclopropylaminomethyl-benzoylamino)-1H-thieno[2,3-c]pyrazole-5-carboxylic acid (1-methyl-1-phenyl-ethyl)-amide]
26 | < 20 nM | CN(C)CCOc1ccc(C(=O)Nc2n[nH]c3sc(C(=O)NC(C)(C)c4ccccc4F)cc23)cc1 [Compound 126, 3-[4-(2-Dimethylamino-ethoxy)-benzoylamino]-1H-thieno[2,3-c]pyrazole-5-carboxylic acid [1-(2-fluoro-phenyl)-1-methyl-ethyl]-amide]
27 | < 20 nM | CN1CCN(c2ccc(C(=O)Nc3n[nH]c4sc(C(=O)NC(C)(C)c5ccc(F)cc5)cc34)cc2)CC1 [Compound 139, 3-[4-(4-Methyl-piperazin-1-yl)-benzoylamino]-1H-thieno[2,3-c]pyrazole-5-carboxylic acid [1-(4-fluoro-phenyl)-1-methyl-ethyl]amide]
28 | < 20 nM | O=C(Nc1n[nH]c2sc(C(=O)NC3(c4ccccc4)CCCC3)cc12)c1cccs1 [Compound 122, 3-[(Thiophene-2-carbonyl)-amino]-1H-thieno[2,3-c]pyrazole-5-carboxylic acid (1-phenyl-cyclopentyl)-amide]
29 | < 20 nM | CC(C)(NC(=O)c1cc2c(NC(=O)c3ccc(CN4CCCCC4)cc3)n[nH]c2s1)c1cccc(F)c1 [Compound 51, 3-(4-Piperidin-1-ylmethyl-benzoylamino)-1H-thieno[2,3-c]pyrazole-5-carboxylic acid [1-(3-fluoro-phenyl)-1-methyl-ethyl]-amide]
